Earlier results, collected in patent US11603416B2, “Method for preparation of derivatives of gram-positive bacteria surface capsular polysaccharide” (priority 2018, dated 2023).

System: children with severe ASD
Conditions: oral administration; effect disappears once the drug is discontinued

CN[C@H](CC(C)C)C(=O)N[C@H]1C(=O)N[C@@H](CC(N)=O)C(=O)N[C@H]2C(=O)N[C@H]3C(=O)N[C@H](C(=O)N[C@H](C(=O)O)c4cc(O)cc(O)c4-c4cc3ccc4O)[C@H](O)c3ccc(c(Cl)c3)Oc3cc2cc(c3O[C@@H]2O[C@H](CO)[C@@H](O)[C@H](O)[C@H]2O[C@H]2C[C@](C)(N)[C@H](O)[C@H](C)O2)Oc2ccc(cc2Cl)[C@H]1O [vancomycin]
child patients whose autism symptoms have been relieved for a short time: 80%
